The values that follow come from PubChem BioAssay (NCI).

The structures appear in SMILES notation. Values joined by “and” are separate entries in the source; they are usually repeats but may differ in a detail not shown here. Equal entries are not always repeated.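 Interpolation was linear, between the two tested concentrations surrounding the appropriate level; five concentrations were tested over 48 hours in 96-well plates. GI50 is the concentration that inhibits growth by half. The concentration for full growth arrest is given as TGI.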

Test in all cases: growth of human tumour cells (NCI), 48 h
The test system of assay [1] is SNB-75 CNS.
Assay [2] has as its system HL-60(TB) leukemia.
The test system of assay [3] is A549 NSCLC.
In assay [4] the test system is M14 melanoma.
For assay [5], the system named is NCI-H226 lung.
The test system of assay [6] is SF-295 CNS.
Assay [7] concerns SR leukemia.
The subject of assay [8] is SK-MEL-2 melanoma.
Assay [9] has as its system CCRF-CEM leukemia.
Assay [10] relates to OVCAR-3 ovarian.

Take `COc1ccc(N2C(=O)C3c4[nH]c5ccccc5c4C4CCCCC4C3C2=O)cc1` (stereo not given): the TGI in assay [1] is 17.5 µM; in assay [2], 55.1 µM; in [3], 51.9 µM; in assay [4], above 100 µM; in assay [5] it was above 100 µM; in [6], 36 µM. In addition, the TGI in [7] is 25.2 µM; in assay [8], 53.5 µM; in assay [9], 29.1 µM; in assay [10], above 100 µM.

As for `CC1(C)CCc2c(c(N=Nc3ccc(F)cc3)c3ccccc3c2O)O1`, the TGI is 48.6 µM in assay [1]; 65.1 µM in [2]; 32.2 µM in assay [3]; 39.9 µM in assay [4]; above 100 µM in [5]; 49.8 µM in assay [6]. Besides, the TGI in assay [7] worked out at 77.4 µM; in assay [8], 93 µM; in [9], 41 µM; in [10], 70.8 µM.

For `CCN1CCC(O)(/C=C/c2ccc(C(C)C)cc2)C(C(=O)/C=C/c2ccc(C(C)C)cc2)C1` (stereo not given), the TGI was 11.7 µM in assay [1]; above 26.8 µM in assay [2]; 11.5 µM in assay [3]; above 40.5 µM in assay [4]; 9.06 µM in assay [5]; 9.36 µM in [6]. Further, the TGI in [7] is above 20.9 µM; in [8], 10.5 µM; in assay [9], 4.36 µM; in [10] it was 11.7 µM.

Take `O=S1Nc2c(Cl)cc(Cl)c(Cl)c2S1` (stereo not given): the TGI in assay [1], in assay [2], in assay [3], in assay [4], in assay [5] and in [6] was above 100 µM in each case. Besides, the TGI in [7], in assay [8], in assay [9] and in [10] was above 100 µM each time.

`C[C@H]1COC2=C1C(=O)C(=O)c1c2ccc2c1CCCC2(C)C`: the TGI in assay [1] was 3.81 µM; in assay [2] it was 42.3 µM; in assay [3] it was 4.55 µM; in assay [4] it was 3.15 µM; in [5], 24.1 µM; in assay [6], 3.73 µM. The TGI was above 42.7 µM in assay [7], 15.3 µM in [8], above 39.5 µM in [9] and 5.92 µM in assay [10].

As to `OC(CC(O)(C(F)(F)F)C(F)(F)F)c1ccc(C(O)CC(O)(C(F)(F)F)C(F)(F)F)cc1` (stereo not given), the TGI in assay [1] stood at 31.8 µM; in assay [2] it was 37.4 µM; in [3], 28.6 µM; in [4] it was 29.9 µM; in assay [6], 32.5 µM; in assay [7], 40.2 µM. Besides, the TGI in assay [8] was 38.4 µM; in [9] it was 36.9 µM; in [10], 18.2 µM.

`O=C(O)CCC(NC(=O)c1ccc(Nc2nc3cc(C(F)(F)F)ccc3nc2C(=O)O)cc1)C(=O)O` (stereo not given): the TGI in assay [1], in assay [2], in assay [3], in assay [4], in assay [5] and in assay [6] was above 100 µM each time. Also, the TGI in [7], in assay [8], in [9] and in assay [10] was above 100 µM in each case.

On to `Cc1cn(S(=O)(=O)c2ccccc2)c2c(OCc3ccccc3)cc(NS(C)(=O)=O)cc12`, for which the TGI was above 100 µM in assay [1]; above 20.6 µM in [2]; above 100 µM in assay [3]; above 100 µM in assay [4]; above 94.4 µM in assay [5]; above 100 µM in [6]. Further, the TGI in assay [7] is above 100 µM; in assay [8], 63.5 µM; in [9], above 100 µM; in assay [10], above 75.7 µM.

Take `Cc1sc2nc3n(c(=O)c2c1C)N=CN(c1ccc(F)cc1)C3`: the TGI in [1], in assay [3], in assay [4], in assay [5], in assay [6] and in assay [7] was above 100 µM each time. In addition, the TGI in assay [8], in assay [9] and in [10] was above 100 µM throughout.

With `CCOC(=O)/C=C(\C(=O)OCC)n1ccc(=O)[nH]c1=O`, the TGI was 35.3 µM in assay [1]; 6.2 µM in [2]; above 84.5 µM in [3]; 31.4 µM in assay [4]; above 39.1 µM in assay [5]; above 100 µM in assay [6]. Also, the TGI in assay [7] was found to be 29.7 µM; in [8], 50 µM; in [9] it was 6.2 µM; in assay [10], 26.1 µM.

For the compound `Cc1ccc(NC(=O)CSC(N)=O)cc1C`, the TGI in assay [1], in assay [2], in assay [3], in [4], in assay [5] and in assay [6] was above 100 µM each time. The TGI in assay [7], in [8], in assay [9] and in assay [10] was above 100 µM throughout.

As to `Cc1ccc(N=C2C(=Nc3ccc(C)cc3)N(c3ccc(C)cc3)C(=S)N2C(=O)c2ccccc2)cc1`, the TGI in [1] was 81.2 µM; in [3], above 100 µM; in assay [4] it was above 100 µM; in [5], above 100 µM; in assay [6], 32.3 µM; in assay [7], above 100 µM. For the same compound, the TGI in assay [8] and in [10] was above 100 µM throughout.

Consider `O=c1[nH]c(=S)c2cc3c(=S)[nH]c(=O)n(CCO)c3nc2n1CCO`, for which the TGI in assay [1], in assay [3], in assay [4], in [5], in [6] and in [7] was above 100 µM in each case. For the same compound, the TGI in [8], in assay [9] and in assay [10] was above 100 µM each time.

With `C=C(c1ccccc1)c1ccccc1-c1cc(-c2ccccc2)cc(-c2ccccc2)n1`, the TGI in assay [1], in assay [2], in assay [3], in [4], in assay [5] and in assay [6] was above 100 µM each time. Further, the TGI in [7], in [9] and in [10] was above 100 µM throughout.

As to `CC1=NN(c2nc(N)nc(CF)n2)C(C)(C)C1`, the TGI in assay [1], in [2], in assay [4], in assay [5], in assay [6] and in assay [7] was above 100 µM each time. The TGI in assay [8] and in assay [9] was above 100 µM in each case.

For the compound `CC(=O)c1c2n(n(-c3ccccc3)c1=O)C(=O)c1nccnc1-2`, the TGI in assay [1], in assay [2], in [3], in [4], in assay [5] and in assay [6] was above 100 µM each time. Also, the TGI in assay [7], in assay [8] and in assay [10] was above 100 µM in each case.

As for `C=CC(C)(C)C(=C)C(=O)Nc1ccccc1I`, the TGI in assay [1], in assay [3], in [4], in assay [5], in assay [6] and in assay [7] was above 100 µM each time. Moreover, the TGI in [8], in assay [9] and in assay [10] was above 100 µM each time.

For the compound `Oc1ccc(Cl)cc1C1=NC(/N=C\c2ccccc2)=NC(c2ccccc2)C1` (stereo not given), the TGI in assay [1] was 64.7 µM; in [3], above 100 µM; in assay [4], above 100 µM; in assay [5], above 100 µM; in assay [6], above 100 µM; in [7], 45 µM. For the same compound, the TGI in [8], in assay [9] and in [10] was above 100 µM in each case.

In the case of `[N-]=[N+]=C(C(=O)N1CCCC1=O)S(=O)(=O)c1ccccc1`, the TGI in assay [1], in assay [2], in assay [3], in assay [4], in assay [6] and in [7] was above 100 µM in each case. Further, the TGI in [8], in [9] and in assay [10] was above 100 µM throughout.

For `COC(=O)C1=C(C(=O)OC)SC2(S1)C(C(=O)OC)=C(C(=O)OC)Sc1c2ssc1=NC(C)(C)C`, the TGI in assay [1] turned out to be 2.92 µM; in [2] it was 4.73 µM; in assay [3], 8.69 µM; in [4], 3.15 µM; in assay [5] it was 12.8 µM; in assay [6], 27.7 µM. The TGI in assay [7] turned out to be 1.91 µM; in assay [8], 2.82 µM; in assay [10] it was 3.5 µM.

Take `CC(=O)/C(=C/N1CCNC1=S)C(=O)Nc1ccccc1C`: the TGI in [1], in [3], in assay [4], in [5], in assay [6] and in [7] was above 100 µM throughout. Also, the TGI in assay [8], in assay [9] and in assay [10] was above 100 µM throughout.

`C/C=C(/C)C(=O)O[C@H]1[C@H](O)CC(c2ccc3c(c2O)C(O)=C2C(=O)C4(OC)C(O)=C(C(N)=O)C(=O)[C@H](CC(=O)c5ccccc5O)C4CC2[C@@]3(C)OC)O[C@@H]1C` (stereo not given in full): the TGI in [1] was 2.05 µM and 0.705 µM; in [3], 4.6 µM and 1.52 µM; in assay [4] it was 2.13 µM and 1.34 µM; in assay [5] it was 2.33 µM; in assay [6], 0.193 µM and 0.128 µM; in assay [7], 0.355 µM. The TGI in assay [8] came out at 0.0696 µM; in assay [10] it was 1.9 µM.

Regarding `Cn1c(O)c(C=Nc2ccccc2Cl)c(=O)n(C)c1=O`, the TGI in assay [1] is above 100 µM; in [3] it was above 100 µM; in [4] it was 48.9 µM; in assay [5], above 100 µM; in assay [6], 80.5 µM; in assay [7], 55.9 µM. In addition, the TGI in assay [8] is 41.1 µM; in assay [9], 49 µM; in assay [10], 49.5 µM.

Regarding `C=CCC(C(=O)Nc1cccc2[nH]cnc12)C(=O)OCC` (stereo not given), the TGI in [1], in assay [2], in assay [3], in [4], in assay [5] and in assay [6] was above 100 µM throughout. Moreover, the TGI in assay [7], in assay [8] and in [10] was above 100 µM in each case.

On to `NC1CC=C(COC(=O)C(O)(c2ccccc2)C2CC2)CC1` (stereo not given), for which the TGI in assay [1], in assay [3], in assay [4], in assay [5], in assay [6] and in assay [7] was above 100 µM each time. In [10], the TGI was above 100 µM.

Turning to `CC(=O)Nc1ccccc1NC1CC(C)N(c2ccccc2)N1C(C)=O` (stereo not given), the TGI in [1], in assay [2], in assay [3], in [4], in [6] and in assay [7] was above 10 µM each time. In assay [9], the TGI was above 10 µM.

Take `Cc1c(C(=O)O)n2cnnc2c2ccccc12`: the TGI in assay [2], in assay [3], in assay [4], in assay [5], in [6] and in assay [7] was above 100 µM in each case. Also, the TGI in assay [8], in assay [9] and in assay [10] was above 100 µM throughout.

With `Brc1ccc2c(-c3csc(-c4c[nH]c5ccccc45)n3)c[nH]c2c1`, the TGI came out at 46.4 µM in [1]; 29.2 µM in assay [3]; 27.3 µM in assay [4]; 34 µM in assay [5]; 29.5 µM in [6]; 21.7 µM in assay [7]. For the same compound, the TGI worked out at 38.1 µM in assay [9] and 29.1 µM in assay [10]. The values for the GI50 in [6] and in assay [7] were 14.6 µM and 6.36 µM, respectively.

For the compound `CCOC(=O)C(NC(=O)OC(C)(C)C)C(=O)OCC`, the TGI in assay [1], in assay [3], in assay [7], in assay [8] and in assay [9] was above 100 µM throughout.
